Data set [1] is described as follows: Permeability in human Caco2/TC7 cells at 5 uM. The format is ADME, cell-based. As to conditions: Caco-2, read-out: permeability.
The subject of data set [2] is KG-1. The data set can be described thus: Cytotoxicity against human KG-1 cells assessed as reduction in cell viability. The format is functional, cell-based.
Data set [3] can be described thus: Inhibition of PIM in human KG-1 cells assessed as reduction in PS6 level. The format is cell-based.
Data set [4] concerns the target Serine/threonine-protein kinase pim-2 (Homo sapiens, UniProt Q9P1W9). As to the kind of experiment: Inhibition of PIM2 (unknown origin).
In data set [5] the test system is KG-1. The data set can be described thus: Antitumor against human KG-1 cells xenografted in mouse assessed as tumor growth inhibition at 150 mg/kg, po administered BID for 3 weeks. The format is functional. Particulars: KG-1, po, 504 h, read-out: TGI. Background: Xenograft models place foreign cells or tissue in a host animal.
Data set [6] in a line: Oral bioavailability in rat at 10 mg/kg. The format is ADME, organism-based. Particulars: in vivo.
A short description of data set [7]: Volume of distribution at steady state in rat at 3 mg/kg, iv. The format is ADME, organism-based. As to conditions: in vivo, read-out: Vdss.
Data set [8] has as its system KG-1. The data set can be described thus: Antitumor activity against human KG-1 tumor bearing mouse assessed as reduction BAD phosphorylation at 25 mg/kg, po measured after 24 hrs. The format is functional. Particulars: KG-1, po.
Data set [9] in a line: Cmax in rat at 3 mg/kg, iv. The format is ADME, organism-based. Also on record: route intravenous, dose 3 mg/kg. As to conditions: in vivo.
For data set [10], the system named is KG-1. As to the kind of experiment: Antitumor activity against human KG-1 tumor bearing mouse assessed as reduction BAD phosphorylation at 25 mg/kg, po measured after 8 hrs. The format is functional. Particulars: KG-1, po.
Data set [11] in a line: Unbound fraction in human KG-1 tumor bearing mouse plasma at 25 mg/kg, po. The format is ADME, organism-based.
The nature of data set [12]: Free plasma concentration in human KG-1 tumor bearing mouse at 25 mg/kg, po measured after 8 hrs. The format is ADME, organism-based. Particulars: in vivo.
A short description of data set [13]: Clearance in rat at 3 mg/kg, iv. The format is ADME, organism-based. As to conditions: in vivo.
Data set [14] relates to KG-1. As to the kind of experiment: Antitumor against human KG-1 cells xenografted in mouse assessed as tumor volume at 100 mg/kg, po administered BID for 3 weeks relative to control. The format is functional.
The test system of data set [15] is KG-1. The data set can be described thus: Antitumor against human KG-1 cells xenografted in mouse assessed as tumor volume at 150 mg/kg, po administered BID for 3 weeks relative to control. The format is functional.
A short description of data set [16]: Toxicity in mouse xenografted with human KG-1 cells assessed as reduction in body weight at 50 to 150 mg/kg, po administered bid for 3 weeks. As to conditions: in vivo, 504 h, dose 50-150 mg/kg. Also on record: scale not given: the % may be the effect or the level left. The format is organism-based.
Data set [17] relates to KG-1. The data set can be described thus: Antitumor against human KG-1 cells xenografted in mouse assessed as tumor volume at 50 mg/kg, po administered BID for 3 weeks relative to control. The format is functional.
Data set [18] in a line: Free plasma concentration in human KG-1 tumor bearing mouse at 25 mg/kg, po measured after 24 hrs. Particulars: in vivo. The format is ADME, organism-based.
For data set [19], the target named is Voltage-gated inwardly rectifying potassium channel KCNH2 (Homo sapiens, UniProt Q12809). The data set can be described thus: Inhibition of human ERG by patch clamp assay.
Sequence of Voltage-gated inwardly rectifying potassium channel KCNH2 (Q12809 whole entry): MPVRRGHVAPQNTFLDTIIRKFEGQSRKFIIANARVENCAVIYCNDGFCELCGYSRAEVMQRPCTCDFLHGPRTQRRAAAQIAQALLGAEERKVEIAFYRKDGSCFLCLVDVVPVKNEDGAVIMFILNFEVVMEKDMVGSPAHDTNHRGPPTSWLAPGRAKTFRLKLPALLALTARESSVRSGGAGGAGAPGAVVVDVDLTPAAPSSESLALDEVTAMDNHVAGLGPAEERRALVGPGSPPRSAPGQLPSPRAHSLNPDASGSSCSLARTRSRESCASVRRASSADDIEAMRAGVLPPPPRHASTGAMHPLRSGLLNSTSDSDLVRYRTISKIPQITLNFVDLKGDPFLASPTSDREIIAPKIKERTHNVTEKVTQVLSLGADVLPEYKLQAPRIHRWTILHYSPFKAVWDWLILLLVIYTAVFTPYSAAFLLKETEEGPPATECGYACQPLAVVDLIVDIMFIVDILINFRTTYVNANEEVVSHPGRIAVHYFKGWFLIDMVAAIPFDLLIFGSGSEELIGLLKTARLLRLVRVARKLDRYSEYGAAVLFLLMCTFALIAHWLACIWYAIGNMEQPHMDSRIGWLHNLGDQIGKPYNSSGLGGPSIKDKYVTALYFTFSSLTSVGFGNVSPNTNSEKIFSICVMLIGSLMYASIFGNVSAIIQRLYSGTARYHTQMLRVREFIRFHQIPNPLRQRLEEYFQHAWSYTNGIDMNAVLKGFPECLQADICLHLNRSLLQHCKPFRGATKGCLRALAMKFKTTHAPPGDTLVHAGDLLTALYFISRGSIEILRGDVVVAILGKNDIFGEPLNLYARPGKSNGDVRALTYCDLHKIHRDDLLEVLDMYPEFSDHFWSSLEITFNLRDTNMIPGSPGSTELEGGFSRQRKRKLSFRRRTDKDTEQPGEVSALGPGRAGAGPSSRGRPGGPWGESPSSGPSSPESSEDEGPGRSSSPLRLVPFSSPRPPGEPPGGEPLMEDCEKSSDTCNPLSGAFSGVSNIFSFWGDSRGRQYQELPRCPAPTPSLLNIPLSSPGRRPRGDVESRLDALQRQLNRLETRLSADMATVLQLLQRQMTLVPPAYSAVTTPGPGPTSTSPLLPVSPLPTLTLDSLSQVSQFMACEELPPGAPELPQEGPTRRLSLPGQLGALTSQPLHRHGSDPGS
Data set [20] is described as follows: Thermodynamic solubility in pH 7.4 buffer. The format is physicochemical. Particulars: read-out: Therm_solubility.
Data set [21] can be described thus: Half life in rat at 3 mg/kg, iv. Particulars: in vivo. The format is ADME, organism-based.
Data set [22] is described as follows: Free tumor concentration in human KG-1 tumor bearing mouse at 25 mg/kg, po measured after 24 hrs. As to conditions: in vivo. The format is ADME, organism-based, Neoplasm.
Data set [23] can be described thus: Free tumor concentration in human KG-1 tumor bearing mouse at 25 mg/kg, po measured after 8 hrs. The format is ADME, organism-based, Neoplasm. Particulars: in vivo.

The structures appear in SMILES notation. Converted amounts (≈) assume the structure as drawn.

As usually defined, the EC50 is the midpoint of the concentration-response curve. The term IC50 denotes the concentration needed to halve the response being measured. The bioavailability is the share of a dose that reaches the circulation, judged against a reference dose that is usually intravenous. As usually defined, the Cmax is the highest concentration seen after dosing. The term fraction unbound denotes the share of the substance not bound to proteins or other matrix. By clearance is commonly meant the rate of elimination divided by the concentration. As usually defined, the T/C is the ratio of treated to control. Usually half-life stands for the time in which the quantity being followed falls by half.

Sequence of Serine/threonine-protein kinase pim-2 (Q9P1W9 whole entry): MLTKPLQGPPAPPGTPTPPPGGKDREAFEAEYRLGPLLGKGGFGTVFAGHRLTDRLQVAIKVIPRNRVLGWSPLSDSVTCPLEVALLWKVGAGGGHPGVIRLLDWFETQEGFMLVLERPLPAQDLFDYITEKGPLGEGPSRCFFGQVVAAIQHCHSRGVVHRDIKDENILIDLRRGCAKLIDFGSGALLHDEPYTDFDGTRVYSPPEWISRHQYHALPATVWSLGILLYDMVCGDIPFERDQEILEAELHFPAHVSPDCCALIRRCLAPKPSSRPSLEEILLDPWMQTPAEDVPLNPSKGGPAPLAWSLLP

In the case of `Cc1cn([C@H](C)[C@@H]2CCNC[C@H]2F)c2nc(C(N)=O)cc(Cl)c12` (racemic), in data set [1], the Papp at 5 µM was found to be 12 ×10⁻⁶ cm/s. The 50% effective concentration (EC50) in the data set with KG-1 [2] was 0.02 µM; in data set [3], 0.024 µM.

Take `Cc1cn([C@@H](C)[C@@H]2CCNC[C@@H]2F)c2nc(C(N)=O)cc(Cl)c12` (racemic): in data set [1], the Papp at 5 µM worked out at 1.7 ×10⁻⁶ cm/s. The half-maximal effective concentration (EC50) in the data set on KG-1 [2] came to 0.195 µM; in [3] it was 0.115 µM.

Take `Cc1cn([C@H](C)[C@H]2CCNC[C@@H]2F)c2nc(C(N)=O)cc(Cl)c12` (racemic): in data set [1], the Papp at 5 µM worked out at 7.1 ×10⁻⁶ cm/s. The 50% effective concentration (EC50) amounted to 0.051 µM in the data set on KG-1 [2] and 0.052 µM in data set [3].

On to `Cc1cn([C@@H](C)[C@H]2CCNC[C@H]2F)c2nc(C(N)=O)cc(Cl)c12` (racemic), for which the Papp at 5 µM in [1] came out at 1.5 ×10⁻⁶ cm/s. Besides, the results for the concentration giving a half-maximal response (EC50) (with KG-1 [2]; in [3]) were 0.017 µM and 0.006 µM, respectively.

In turn, `Cc1cn([C@H](C)[C@@]2(F)CCNC2)c2nc(C(N)=O)cc(Cl)c12` (stereo in doubt) returned an IC50 in data set [4] of 1.78 µM. Also, in the data set with KG-1 [2], the EC50 is 7.23 µM.

As to `Cc1cn([C@@H](C)[C@]2(F)CCNC2)c2nc(C(N)=O)cc(Cl)c12` (stereo in doubt), the inhibition in vivo at 150 mg/kg in the data set with KG-1 [5] came to 87%. Moreover, the bioavailability in [6] worked out at 59%. For the same compound, in [7], the Vd came to 9.9 L/kg. The results for the inhibition in vivo at 25 mg/kg in the data set on KG-1 [8] and in the data set on KG-1 [10] were 55% and 65%, respectively. In data set [9], this compound had a Cmax of 174 ng/mL. Moreover, the Papp at 5 µM in data set [1] is 2.3 ×10⁻⁶ cm/s. This compound also registered a fraction unbound in data set [11] of 0.055. The entries for the “Cp(f)” value in [12] and in data set [18] were 240 nM and 54 nM, respectively. In data set [13], the clearance was 75 mL/min/kg. The T/C with KG-1 [14] is 50.7%; with KG-1 [15] it was 13.1%; in the data set with KG-1 [17], 56.1%. The results for the IC50 in data set [4] and in [19] were 0.006 µM and 22 µM, respectively. The 50% effective concentration (EC50) in the data set on KG-1 [2] worked out at 0.061 µM; in data set [3], 0.071 µM. Moreover, the Activity in [16] was more than 15%. Further, the solubility thermodynamic in [20] was determined as 6.8 mM (≈ 2210 µg/mL). Besides, the half-life in [21] is 2.7 h. Further, the figures for the “Drug uptake(free)” value in data set [22] and in data set [23] were 120 nM and 720 nM, respectively.

As to `Cc1cn([C@H](C)[C@]2(F)CCNC2)c2nc(C(N)=O)cc(Cl)c12` (stereo in doubt), the Papp at 5 µM in data set [1] turned out to be 1.8 ×10⁻⁶ cm/s. The IC50 was 0.515 µM in [4] and 30 µM in data set [19]. For the same compound, the EC50 with KG-1 [2] was determined as 9.07 µM; in data set [3], 2.03 µM.

For `Cc1cn([C@@H](C)[C@@]2(F)CCNC2)c2nc(C(N)=O)cc(Cl)c12` (stereo in doubt), the half-maximal inhibitory concentration (IC50) in data set [4] was 0.16 µM. The EC50 was 0.808 µM in the data set on KG-1 [2] and 0.876 µM in [3].

The values are drawn from ChEMBL document CHEMBL4699590, “Discovery of SARxxxx92, a pan-PIM kinase inhibitor, efficacious in a KG1 tumor model” (Bioorg Med Chem Lett, 2020).
